In ChEMBL document CHEMBL1137750, “Synthesis and biological evaluation of 4,5-diphenyloxazolone derivatives on route towards selective COX-2 inhibitors” (Eur J Med Chem, 2009) one finds inhibition, IC50 and Ratio IC50 data, which are given here for two compounds.

Test [1] deals with T1, Prostaglandin G/H synthase 1 (Ovis aries) (UniProt P05979).
T1 sequence (whole entry): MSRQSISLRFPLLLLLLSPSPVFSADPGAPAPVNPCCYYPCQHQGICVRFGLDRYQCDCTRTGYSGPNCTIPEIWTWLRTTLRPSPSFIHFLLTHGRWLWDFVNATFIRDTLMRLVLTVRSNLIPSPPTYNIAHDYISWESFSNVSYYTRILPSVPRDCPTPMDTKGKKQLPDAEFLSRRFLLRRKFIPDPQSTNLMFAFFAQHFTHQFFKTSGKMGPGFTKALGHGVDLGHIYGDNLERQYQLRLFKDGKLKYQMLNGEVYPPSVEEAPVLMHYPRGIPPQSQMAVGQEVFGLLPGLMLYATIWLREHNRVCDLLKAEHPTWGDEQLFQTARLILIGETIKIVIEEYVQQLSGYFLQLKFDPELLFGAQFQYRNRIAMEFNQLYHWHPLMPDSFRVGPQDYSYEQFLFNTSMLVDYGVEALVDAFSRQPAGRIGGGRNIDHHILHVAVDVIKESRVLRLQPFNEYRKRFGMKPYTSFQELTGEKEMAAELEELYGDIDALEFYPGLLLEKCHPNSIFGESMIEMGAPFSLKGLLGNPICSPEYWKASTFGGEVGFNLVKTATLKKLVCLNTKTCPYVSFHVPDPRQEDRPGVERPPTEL
Put plainly: Inhibition of ovine COX1 at 10 uM by enzyme immunoassay relative to control.

Test [2] has as its target T2, Prostaglandin G/H synthase 1 (Ovis aries, UniProt P05979).
T2 sequence (P05979 whole entry): T1 sequence (whole entry)
Put plainly: Inhibition of ovine COX1 by enzyme immunoassay.

Test [3] concerns the target T3, Prostaglandin G/H synthase 2 (Homo sapiens) (UniProt P35354).
T3 sequence (whole entry): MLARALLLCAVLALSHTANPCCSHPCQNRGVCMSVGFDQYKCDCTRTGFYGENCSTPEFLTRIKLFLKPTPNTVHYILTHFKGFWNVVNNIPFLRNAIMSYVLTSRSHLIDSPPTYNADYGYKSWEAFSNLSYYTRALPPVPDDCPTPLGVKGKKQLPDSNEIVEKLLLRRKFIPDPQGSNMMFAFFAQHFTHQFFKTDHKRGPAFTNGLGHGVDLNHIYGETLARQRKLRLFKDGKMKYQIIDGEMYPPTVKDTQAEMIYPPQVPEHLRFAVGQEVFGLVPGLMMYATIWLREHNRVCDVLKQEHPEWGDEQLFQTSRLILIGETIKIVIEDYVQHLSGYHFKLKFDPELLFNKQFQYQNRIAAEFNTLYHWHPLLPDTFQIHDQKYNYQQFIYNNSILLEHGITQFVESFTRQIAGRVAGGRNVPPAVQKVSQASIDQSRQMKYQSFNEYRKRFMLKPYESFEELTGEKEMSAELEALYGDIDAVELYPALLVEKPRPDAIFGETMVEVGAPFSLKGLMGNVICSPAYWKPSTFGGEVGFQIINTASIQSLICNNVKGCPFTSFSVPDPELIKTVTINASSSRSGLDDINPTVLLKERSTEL
The experiment in a line: Inhibition of COX2 in LPS-stimulated human whole blood assessed as PGE2 production by enzyme immunoassay. The format is tissue-based. The note with it: concentration not given here.

The species named for test [4] is Ovis aries. The experiment in a line: Selectivity index, raio of IC50 for ovine COX1 to IC50 for ovine COX2.
Test [5] concerns the target Prostaglandin G/H synthase 1 (Homo sapiens) (UniProt P23219). Put plainly: Inhibition of COX1 in human whole blood assessed as TXB2 production at 10 uM by enzyme immunoassay.
For test [6], the target named is T1, Prostaglandin G/H synthase 1 (Ovis aries). Put plainly: Inhibition of ovine COX1 at 100 uM by enzyme immunoassay relative to control.

A value given as a limit tells only on which side of the number the result lay.

Chain of Prostaglandin G/H synthase 1 (Homo sapiens) (P23219 whole entry): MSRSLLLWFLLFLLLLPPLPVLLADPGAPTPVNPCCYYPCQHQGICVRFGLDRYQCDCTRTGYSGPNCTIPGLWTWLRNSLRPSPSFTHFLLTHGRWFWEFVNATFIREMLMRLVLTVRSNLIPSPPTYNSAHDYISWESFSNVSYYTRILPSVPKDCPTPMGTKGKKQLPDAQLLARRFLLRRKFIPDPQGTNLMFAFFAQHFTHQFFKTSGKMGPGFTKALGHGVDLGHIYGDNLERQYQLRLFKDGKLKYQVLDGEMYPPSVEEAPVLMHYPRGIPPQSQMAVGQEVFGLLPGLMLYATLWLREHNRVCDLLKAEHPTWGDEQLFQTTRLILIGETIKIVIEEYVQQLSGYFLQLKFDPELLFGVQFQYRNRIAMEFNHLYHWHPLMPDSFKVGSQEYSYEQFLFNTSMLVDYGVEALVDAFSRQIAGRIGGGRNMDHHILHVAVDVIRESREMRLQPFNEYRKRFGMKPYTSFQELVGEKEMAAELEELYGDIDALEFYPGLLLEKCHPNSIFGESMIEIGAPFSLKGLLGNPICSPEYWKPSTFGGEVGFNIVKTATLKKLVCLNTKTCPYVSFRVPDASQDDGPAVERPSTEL

As a reminder, the inhibition is how much of the control response was suppressed. `COc1ccc2c(c1)c(CC(=O)O)c(C)n2C(=O)c1ccc(Cl)cc1` showed an inhibition in test [1] of 71.9%.
One may read the IC50 as the concentration that inhibits the measured activity by half. Low readings indicate greater potency in that assay, high ones weaker potency in that assay. Compound `Cn1c(-c2ccccc2)c(-c2ccc(S(N)(=O)=O)cc2)oc1=O` gave an IC50 in test [2] of more than 100 µM. Also, the inhibition in test [3] was found to be 85%; in test [1], 3.56%; in test [5] it was 7%; in test [6] it was 19.3%. Further, the Ratio IC50 in test [4] is more than 50.
